Reference: patent publication US11434242B2, “Dopamine-b-hydroxylase inhibitors” (BIAL-PORTELA & Cª, S.A., priority 2017, dated 2022)

Target: T1, Dopamine beta hydroxylase (Homo sapiens, UniProt P09172)
T1 construct: 125 μl of plasma; tissue Instituto Português do Sangue Transplantação; host or cells: human plasma from healthy donors
T1 sequence (P09172 40-617 limits assumed): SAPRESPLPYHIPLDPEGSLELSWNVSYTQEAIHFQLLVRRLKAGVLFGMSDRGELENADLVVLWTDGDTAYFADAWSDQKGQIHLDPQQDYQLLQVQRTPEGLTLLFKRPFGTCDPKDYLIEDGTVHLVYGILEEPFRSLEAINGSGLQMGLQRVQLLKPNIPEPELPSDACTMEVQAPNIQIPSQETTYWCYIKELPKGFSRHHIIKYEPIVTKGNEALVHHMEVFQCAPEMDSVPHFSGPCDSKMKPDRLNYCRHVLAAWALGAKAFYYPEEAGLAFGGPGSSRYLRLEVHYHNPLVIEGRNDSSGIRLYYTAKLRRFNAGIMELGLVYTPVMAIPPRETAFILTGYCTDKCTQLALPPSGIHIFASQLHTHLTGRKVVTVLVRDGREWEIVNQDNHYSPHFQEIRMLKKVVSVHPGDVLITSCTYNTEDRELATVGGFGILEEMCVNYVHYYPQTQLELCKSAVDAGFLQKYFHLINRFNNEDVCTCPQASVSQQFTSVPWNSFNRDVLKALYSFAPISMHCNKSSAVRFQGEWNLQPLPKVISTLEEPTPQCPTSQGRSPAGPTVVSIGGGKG
Test: Dopamine beta hydroxylase activity in human plasma
Format: biochemical
Conditions: for Plasma (0.01 μM), activity in % of control: inhibitor 0.01 μM; for Plasma (0.1 μM), activity in % of control: inhibitor 0.1 μM
Procedure, shortened: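 Healthy-donor human plasma pre-incubated 10 min at 37° C with compound at final 10, 100 or 1000 nM in pH 5.0 acetate buffer with ascorbate, fumarate, pargyline, N-ethylmaleimide, catalase and copper sulfate. Tyramine substrate then added for 45 min; octopamine formed was isolated by SCX cartridge, periodate-converted and read at 330 nm; activity given as % control.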

Structure (SMILES) | Plasma (0.01 μM), activity in % of control | Plasma (0.1 μM), activity in % of control
CC(C)NC(=O)Cc1c2n(c(=S)n1C)C[C@@]1(c3cc(Br)ccc3F)C[C@@H]21 [Example 284, 2-((5aS,6aR)-5a-(5-bromo-2-fluorophenyl)-2-methyl-3-thioxo-2,3,5,5a,6,6a-hexahydrocyclopropa[3,4]pyrrolo[1,2-c]imidazol-1-yl)-N-isopropylacetamide] | 84.8 % of control | 41.9 % of control
Cn1c(CC(=O)Nc2nncs2)c2n(c1=S)C[C@H](c1c(F)ccc(Cl)c1F)C2 [Example 285, (S)-2-(6-(3-chloro-2,6-difluorophenyl)-2-methyl-3-thioxo-2,5,6,7-tetrahydro-3H-pyrrolo[1,2-c]imidazol-1-yl)-N-(1,3,4-thiadiazol-2-yl)acetamide] | 55.8 % of control | 22.2 % of control
Cn1c(CC(=O)Nc2ncco2)c2n(c1=S)C[C@@H](c1c(F)ccc(F)c1F)C2 [Example 286, (R)-2-(2-methyl-3-thioxo-6-(2,3,6-trifluorophenyl)-2,5,6,7-tetrahydro-3H-pyrrolo[1,2-c]imidazol-1-yl)-N-(oxazol-2-yl)acetamide] | 73.8 % of control | 3.4 % of control
Cl.Cn1c(CC(=O)Nc2ccncc2)c2n(c1=S)C[C@H](c1c(F)ccc(Cl)c1F)C2 [Example 287, (S)-2-(6-(3-chloro-2,6-difluorophenyl)-2-methyl-3-thioxo-2,5,6,7-tetrahydro-3H-pyrrolo[1,2-c]imidazol-1-yl)-N-(pyridin-4-yl)acetamide Hydrochloride] | 66.8 % of control | 15.5 % of control
Cn1c(CCC(=O)N[C@@H]2CCCOC2)c2n(c1=S)C[C@@H](c1c(F)ccc(F)c1F)C2 [Example 288, 3-((R)-2-methyl-3-thioxo-6-(2,3,6-trifluorophenyl)-2,5,6,7-tetrahydro-3H-pyrrolo[1,2-c]imidazol-1-yl)-N—((R)-tetrahydro-2H-pyran-3-yl)propanamide] | 82.0 % of control | 81.1 % of control
Cn1c(CC(=O)N[C@H]2CCOC2)c2n(c1=S)C[C@@H](c1c(F)ccc(F)c1F)C2 [Example 289, 2-((R)-2-methyl-3-thioxo-6-(2,3,6-trifluorophenyl)-2,5,6,7-tetrahydro-3H-pyrrolo[1,2-c]imidazol-1-yl)-N—((S)-tetrahydrofuran-3-yl)acetamide] | 87.1 % of control | 58.3 % of control
Cn1c(CC(=O)NCc2cccnc2)c2n(c1=S)C[C@H](c1c(F)ccc(Cl)c1F)C2 [Example 290, (S)-2-(6-(3-chloro-2,6-difluorophenyl)-2-methyl-3-thioxo-2,5,6,7-tetrahydro-3H-pyrrolo[1,2-c]imidazol-1-yl)-N-(pyridin-3-ylmethyl)acetamide] | 37.6 % of control | 3.8 % of control
Cn1c(CC(=O)NCc2ccc3c(c2)OCO3)c2n(c1=S)C[C@H](c1c(F)ccc(Cl)c1F)C2 [Example 291, (S)—N-(benzo[d][1,3]dioxol-5-ylmethyl)-2-(6-(3-chloro-2,6-difluorophenyl)-2-methyl-3-thioxo-2,5,6,7-tetrahydro-3H-pyrrolo[1,2-c]imidazol-1-yl)acetamide] | 30.2 % of control | 1.7 % of control
Cn1c(CC(=O)N2CC[C@@H](F)C2)c2n(c1=S)C[C@@H](c1c(F)ccc(F)c1F)C2 [Example 292, 1-((R)-3-fluoropyrrolidin-1-yl)-2-((R)-2-methyl-3-thioxo-6-(2,3,6-trifluorophenyl)-2,5,6,7-tetrahydro-3H-pyrrolo[1,2-c]imidazol-1-yl)ethan-1-one] | 101.9 % of control | 68.3 % of control
CN(CCO)C(=O)Cc1c2n(c(=S)n1C)C[C@@H](c1c(F)ccc(F)c1F)C2 [Example 293, (R)—N-(2-hydroxyethyl)-N-methyl-2-(2-methyl-3-thioxo-6-(2,3,6-trifluorophenyl)-2,5,6,7-tetrahydro-3H-pyrrolo[1,2-c]imidazol-1-yl)acetamide] | 104.8 % of control | 86.0 % of control
Cn1c(CC(=O)NC2CCCCC2)c2n(c1=S)C[C@@]1(c3cc(Br)ccc3F)C[C@@H]21 [Example 294, 2-((5aS,6aR)-5a-(5-bromo-2-fluorophenyl)-2-methyl-3-thioxo-2,3,5,5a,6,6a-hexahydrocyclopropa[3,4]pyrrolo[1,2-c]imidazol-1-yl)-N-cyclohexylacetamide] | 39.7 % of control | 1.7 % of control
Cn1c(CC(=O)N[C@H]2CCOC2)c2n(c1=S)C[C@@H](c1c(F)c(F)cc(F)c1F)C2 [Example 295, 2-((R)-2-methyl-3-thioxo-6-(2,3,5,6-tetrafluorophenyl)-2,5,6,7-tetrahydro-3H-pyrrolo[1,2-c]imidazol-1-yl)-N—((S)-tetrahydrofuran-3-yl)acetamide] | 95.6 % of control | 71.5 % of control
Cn1c(CC(=O)N2CCC[C@H]2CF)c2n(c1=S)C[C@@H](c1c(F)ccc(F)c1F)C2 [Example 296, 1-((S)-2-(fluoromethyl)pyrrolidin-1-yl)-2-((R)-2-methyl-3-thioxo-6-(2,3,6-trifluorophenyl)-2,5,6,7-tetrahydro-3H-pyrrolo[1,2-c]imidazol-1-yl)ethan-1-one] | 89.2 % of control | 74.5 % of control
Cn1c(CC(=O)NC2CCOCC2)c2n(c1=S)C[C@@H](c1c(F)c(F)cc(F)c1F)C2 [Example 297, (R)-2-(2-methyl-6-(2,3,5,6-tetrafluorophenyl)-3-thioxo-2,5,6,7-tetrahydro-3H-pyrrolo[1,2-c]imidazol-1-yl)-N-(tetrahydro-2H-pyran-4-yl)acetamide] | 78.7 % of control | 35.4 % of control
Cn1c(CC(=O)NCC(F)(F)F)c2n(c1=S)C[C@@]1(c3cc(Br)ccc3F)C[C@@H]21 [Example 298, 2-((5aS,6aR)-5a-(5-bromo-2-fluorophenyl)-2-methyl-3-thioxo-2,3,5,5a,6,6a-hexahydrocyclopropa[3,4]pyrrolo[1,2-c]imidazol-1-yl)-N-(2,2,2-trifluoroethyl)acetamide] | 83.5 % of control | 28.2 % of control
Cn1c(CC(=O)NC2CCOCC2)c2n(c1=S)C[C@@H](c1c(F)ccc(F)c1F)C2 [Example 299, (R)-2-(2-methyl-6-(2,3,6-trifluorophenyl)-3-thioxo-2,5,6,7-tetrahydro-3H-pyrrolo[1,2-c]imidazol-1-yl)-N-(tetrahydro-2H-pyran-4-yl)acetamide] | 84.3 % of control | 48.4 % of control
Cn1c(CC(=O)NCC(F)(F)F)c2n(c1=S)C[C@@]1(c3cc(Cl)ccc3F)C[C@@H]21 [Example 300, 2-((5aS,6aR)-5a-(5-chloro-2-fluorophenyl)-2-methyl-3-thioxo-2,3,5,5a,6,6a-hexahydrocyclopropa[3,4]pyrrolo[1,2-c]imidazol-1-yl)-N-(2,2,2-trifluoroethyl)acetamide] | 57.0 % of control | 10.9 % of control
Cn1c(CC(=O)N[C@@H]2CCCOC2)c2n(c1=S)C[C@@]1(c3cc(Cl)ccc3F)C[C@@H]21 [Example 301, 2-((5aS,6aR)-5a-(5-chloro-2-fluorophenyl)-2-methyl-3-thioxo-2,3,5,5a,6,6a-hexahydrocyclopropa[3,4]pyrrolo[1,2-c]imidazol-1-yl)-N—((R)-tetrahydro-2H-pyran-3-yl)acetamide] | 49.1 % of control | 6.4 % of control
Cn1c(CC(=O)NC2CCCCC2)c2n(c1=S)C[C@@]1(c3cc(Cl)ccc3F)C[C@@H]21 [Example 302, 2-((5aS,6aR)-5a-(5-chloro-2-fluorophenyl)-2-methyl-3-thioxo-2,3,5,5a,6,6a-hexahydrocyclopropa[3,4]pyrrolo[1,2-c]imidazol-1-yl)-N-cyclohexylacetamide] | 62.7 % of control | 7.7 % of control
CC(C)NC(=O)Cc1c2n(c(=S)n1C)C[C@@]1(c3cc(Cl)ccc3F)C[C@@H]21 [Example 303, 2-((5aS,6aR)-5a-(5-chloro-2-fluorophenyl)-2-methyl-3-thioxo-2,3,5,5a,6,6a-hexahydrocyclopropa[3,4]pyrrolo[1,2-c]imidazol-1-yl)-N-isopropylacetamide] | 79.3 % of control | 34.7 % of control
